Assay results reported in patent US10906897B2, “Microbiocidal heterobicyclic derivatives” (priority 2015, dated 2021).

What was measured:
[1] = system: Botryotinia fuckeliana (Botrytis cinerea); assay: Botryotinia fuckeliana (Botrytis cinerea) / liquid culture (Gray mould); assay type: cell-based; conditions: growth inhibition photometrically 3-4 days after application, compared to untreated control
[2] = system: Glomerella lagenarium (Colletotrichum lagenarium); assay: Glomerella lagenarium (Colletotrichum lagenarium) / liquid culture (Anthracnose); assay type: cell-based; conditions: Colletotrichum orbiculare, growth inhibition photometrically 3-4 days after application, compared to untreated control

Cc1cccn2ncc(C3=NC(C)(C)C(=O)c4c(F)cccc43)c12
melting point: 141 to 143 °C

CC1(C)N=C(c2cnc3c(F)cccn23)c2cccc(F)c2C1=O
melting point: 160 to 161 °C

Cc1nc2c(C)cccn2c1C1=NC(C)(C)C(C)(C)c2c(F)cccc21 [Compound E-40, 1-(2,8-dimethylimidazo[1,2-a]pyridin-3-yl)-5-fluoro-3,3,4,4-tetramethyl-isoquinoline]
inhibition of growth at 20 ppm [1]: ≥ 80%
inhibition of growth at 20 ppm [2]: ≥ 80%

CC1(C)N=C(c2cnc3c(Br)cccn23)c2cccc(F)c2C1O (stereo not drawn)
melting point: 204 to 205 °C

CC1(C)N=C(c2cnc3c(F)cccn23)c2cccc(F)c2C1Br (stereo not drawn)
melting point: 211 to 212 °C

Cc1cccn2ncc(C3=NC(C)(C)C(=O)c4cc(F)ccc43)c12 [Compound E-75, 6-fluoro-3,3-dimethyl-1-(4-methylpyrazolo[1,5-a]pyridin-3-yl)isoquinolin-4-one]
inhibition of growth at 20 ppm [1]: ≥ 80%
melting point: 180 to 183 °C

Cc1nn2ccccc2c1C1=NC(C)(C)C(C)(C)c2c(F)cccc21 [Compound E-62, 5-fluoro-3,3,4,4-tetramethyl-1-(2-methylpyrazolo[1,5-a]pyridin-3-yl)isoquinoline]
inhibition of growth at 20 ppm [1]: ≥ 80%
inhibition of growth at 20 ppm [2]: ≥ 80%

CC1(C)N=C(c2cnc3c(Br)cccn23)c2cccc(F)c2C1=O
melting point: 146 to 147 °C

CC1(C)N=C(c2cnc3c(F)cccn23)c2cccc(Cl)c2C1Br (stereo not drawn)
melting point: 213 to 214 °C

CC1(C)N=C(c2cnc3c(Br)cccn23)c2cccc(F)c2C1Br (stereo not drawn)
melting point: 217 to 218 °C

CC1(C)N=C(c2cnc3ccc(F)cn23)c2cccc(F)c2C1(C)C
melting point: 200 to 202 °C

CC1(C)Cc2ccccc2C(c2cnc3cc(I)ccn23)=N1
melting point: 190 to 193 °C

CC1(C)Cc2c(F)cccc2C(c2cnc3c(F)cccn23)=N1 [Compound E-10, 5-fluoro-1-(8-fluoroimidazo[1,2-a]pyridin-3-yl)-3,3-dimethyl-4H-isoquinoline]
inhibition of growth at 20 ppm [1]: ≥ 80%
inhibition of growth at 20 ppm [2]: ≥ 80%

CC1(C)N=C(c2cnc3c(Br)cccn23)c2ccccc2C1=O
melting point: 204 to 205 °C

CC1(C)Cc2c(Cl)cccc2C(c2cnc3ccc(F)cn23)=N1
melting point: 142 to 143 °C

C#Cc1cccn2c(C3=NC(C)(C)C(C)(C)c4c(F)cccc43)cnc12 [Compound E-23, 1-(8-ethynylimidazo[1,2-a]pyridin-3-yl)-5-fluoro-3,3,4,4-tetramethyl-isoquinoline]
inhibition of growth at 20 ppm [1]: ≥ 80%
melting point: 169 to 170 °C

CC1(C)N=C(c2cnc3c(Br)cccn23)c2ccccc2C1(F)F
melting point: 173 °C

CC1(C)N=C(c2cnc3ccccn23)c2cc(F)ccc2C1(C)C [Compound E-2, 7-fluoro-1-imidazo[1,2-a]pyridin-3-yl-3,3,4,4-tetramethyl-isoquinoline]
inhibition of growth at 20 ppm [2]: ≥ 80%

Cc1cccn2ncc(C3=NC(C)(C)C(=O)c4ccccc43)c12 [Compound E-68, 3,3-dimethyl-1-(4-methylpyrazolo[1,5-a]pyridin-3-yl)isoquinolin-4-one]
inhibition of growth at 20 ppm [1]: ≥ 80%
melting point: 140 to 141 °C

CC1(C)N=C(c2cnn3cccc(Br)c23)c2ccccc2C1=O
melting point: 148 to 151 °C

CC1(C)Cc2c(Cl)cccc2C(c2cnc3ccccn23)=N1 [Compound E-3, 5-chloro-1-imidazo[1,2-a]pyridin-3-yl-3,3-dimethyl-4H-isoquinoline]
inhibition of growth at 20 ppm [2]: ≥ 80%

CC1(C)N=C(c2cnc3ccc(O)cn23)c2cccc(F)c2C1(C)C
melting point: 321 to 322 °C

Cc1ccc2c(C3=NC(C)(C)C(F)(F)c4ccccc43)cnn2c1C
melting point: 160 to 161 °C

CC1(C)Cc2c(Br)cccc2C(c2cnn3ccccc23)=N1 [Compound E-60, 5-bromo-3,3-dimethyl-1-pyrazolo[1,5-a]pyridin-3-yl-4H-isoquinoline]
inhibition of growth at 20 ppm [1]: ≥ 80%
